Measurements published in patent US11906529B1, “Methods for treatment and diagnosis of endometriosis” (Marshall University Research Corporation, priority 2018, dated 2024).

What was measured:
[1] = test system: EOOF5 cells; assay: xCELLigence cell index of primary endometrial cells treated with PF and/or drug; assay type: cell-based, human; conditions: for cell growth (% CI), PF and drug compared to PF alone: EOOF5 cells; for cell growth (% CI), PF and drug compared to PF alone / cell viability and growth in the presence of PF: 1% PF; for cell viability and growth in the presence of PF: human endometrial cells
Procedure: (§1) Cell treatment. Ishikawa cells (human endometrial cell line) or EOOF5 cells (primary endometrial cells from a patient without endometriosis, gift from Emory University) were cultured in T75 flasks in complete media (DMEM, 10% FCS, 1% P/S). Cells were treated with 1% PF (control and endo patients) in charcoal stripped media containing 0.1% FCS, for 48 hours. A subset of cells were also treated with GSK126 or EPZ-6438 (FIG. 15), at various concentrations for 24 hours. Cells were collected post-treatment for RNA (PCR) and protein analysis (Western blotting).
xCELLigence. EOOF5 cells (primary endometrial cells) was plated at 10,000 cells per well using xCELLigence technology. Plates that have gold electrodes attached to the bottom were utilized. The electrodes produce electrons, which interact with the solution, completing a circuit. As the number of adhered cells in the plate increases, the more this interferes with circuit completion. Cells were treated with either 1% control or endo PF alone or treated with PF for 24 hours before being treated with either 1 μM GSK, 2.5 μM GSK, or 2.5 μM EPZ. Cells were also treated with drug alone. % Cell Impedance (CI) was calculated compared to CF media.

[2] = test system: Ishikawa cells; assay: Inhibitor study using MTT analysis on Ishikawa cells in the presence of PF; assay type: cell-based, human; conditions: 1% PF
Procedure: It was more than 1000 fold selective for EZH2 over other histone methyltransferases, including both SET-domain-containing and non-SET domain-containing methyltransferases, as shown schematically in FIG. 6A. […] In this regard, an inhibitor study using MTT analysis was conducted according to the schematic of FIG. 7A. Various doses of GSK126 were tested on Ishikawa cells in the presence of PF: 100 nM, 500 nM, 1 μM, 2.5 μM, 5 μM, and 10 μM in DMSO. Cell growth and viability of cells was evaluated rather than just EZH2 expression. (FIGS. 7B-7C) 1 mM and 0.1 mM solutions of GSK126 were also created from serial dilutions of 10 mM GSK126. […] It was somewhat unclear, however, whether that the effect of the drug as the volume of the vehicle (DMSO) could have impacted the results.
as §1

[3] = test system: EZH2 expression; assay: mRNA analysis on Ishikawa cells treated with PF and/or GSK 126; assay type: cell-based, human; conditions: depending on order of drug treatment, compared with control or endo PF alone
Procedure: as §1

[4] = test system: global trimethylation; conditions: reactivates silenced PRC2 genes; cited from earlier work

Compound | cell growth (% CI), PF and drug compared to PF alone [1] | cell viability and growth in the presence of PF [1] | cell viability ([2]; 500 nM, vehicle (DMSO) volume could have impacted the results) | cell growth (proliferation) ([2]; GSK126 100 nM-10 μM in DMSO) | EZH2 mRNA expression [3] | cell growth (% CI), drug added after PF pretreatment ([1]; 1% PF first for 24 hours followed by drug for 48 hours) | % CI, drug first followed by PF ([1]; GSK first for 24 hours, then 1% PF for another 48 hours) | global H2K37 trimethylation levels [4]
CCN(c1cc(-c2ccc(CN3CCOCC3)cc2)cc(C(=O)NCc2c(C)cc(C)[nH]c2=O)c1C)C1CCOCC1 [EPZ-6438] | decrease in cell growth | concentration dependent decrease |  |  |  |  |  | 
CC[C@H](C)n1cc(C)c2c(C(=O)NCc3c(C)cc(C)[nH]c3=O)cc(-c3ccc(N4CCNCC4)nc3)cc21 [GSK 126] | decrease in cell growth | concentration dependent decrease | dip in viability | very little proliferation | bidirectional effect | able to lower the cell growth induced by PF | significant decrease in % CI | inhibit global H2K37 trimethylation levels
